Patent US20120208767A1, “Method to Detect or Treat Painful Bladder Syndrome based on Relation to Quinone Oxidoreductase 1” (University of Maryland, Baltimore, priority 2011, published 2012)
Peptide text beside a SMILES is read from it. * marks the point of attachment. Cbz = O=C(OCc1ccccc1)*

Tests used:
[1] = test system: proteasome; assay: Proteasome inhibition after NQO1 siRNA knockdown in T24 cells, Western blot; format: cell-based, human; conditions: NQO1 siRNA 24 h then MG-132 6 h, FIG. 6C
Protocol: Cell culture and Western blots. Cells were cultured in appropriate media (DMEM+1% p/s+10% FBS) and subcultured as necessary. Tissue homogenates were prepared by removing whole bladders from freshly-sacrificed mice killed with isoflurane inhalation and lysing tissue as a 10% homogenate in ice-cold RIPA buffer (50 mM Tris-Cl, pH 7.4, 150 mM NaCl, 1% NP-40, 1 mM EDTA, 0.5% Na Deoxycholate, and 1% Triton X100 with 1 mM PMSF and 1× Protease Inhibitor Cocktail (Complete, Roche)) using glass and Teflon pestle system, and further clarified via centrifugation at 14000 rpm at 4 degrees for 10 minutes. Homogenates were stored at −80° C. until use. Western blotting was performed essentially according to Towbin H, T. Staehelin, J. Gordon, “Electrophoretic transfer of proteins from polyacrylamide gels to nitrocellulose sheets: procedure and some applications,” Proc Natl Acad Sci USA, v76, pp 4350-4354, 1979.
(§1) FIG. 6A through FIG. 6E are Western blot images that illustrate example NQO1 regulation of energy metabolic regulator factor PGC1α in a bladder of a mouse model for PBS compared to wild-type mouse, according to an embodiment. FIG. 6A is a set of Western blot images that illustrate example relative occurrence of proteins in bladders from wild type mice (left) and NQO1−/− mice (right). Bladders from wild type and NQO1−/− mice were immunoblotted and probed with antibodies as indicated: for NQO1 in blot image 601; for AMPK in blot image 603; for CREB in blot image 605; and, for control GAPDH in blot image 607. FIG. 6B is a set of Western blot images that illustrate example relative occurrence of proteins in T24 human bladder carcinoma cells transfected with control (column C, 100 nM control siRNA) or NQO1-specific siRNA (columns 10, 50 and 150 nM NQO1 siRNA) for 24 h and then immunoblotted with indicated antibodies: for NQO1 in blot image 611; for CREB in blot image 613; for AMPK in blot image 615; for PGC1α in blot image 617; and, for control GAPDH in blot image 619. […]

[2] = test system: NQO1 and 20S proteasome interaction with CREB and AMPK in T24; assay: Immunoprecipitation of CREB and AMPK from T24 cells incubated with B[α]P; format: cell-based, human; conditions: B[α]P 0, 10 and 100 nM, 16 h
Protocol: Immunoprecipitation. Human bladder carcinoma T24 cell line was cultured in DMEM+10% FBS+1% p/s at 37 degrees in 5% carbon dioxide before IP studies. Cells were incubated with chemicals as necessary and washed 3× in PBS on ice. Cells were scraped into microfuge tubes using RIPA buffer and protein A/G beads (SANTA CRUZ BIOTECH™ of Santa Cruz, Calif.) were equilibrated with 1 mg aliquots for 1 h. After equilibration, beads were removed and lysates were incubated o/n with 1:100 of relevant antibodies, and next day incubated with 30 microliters A/G beads for 1 h before 3× RIPA buffer wash and boiling 5 mins.
as §1, with “619. FIG. 6C is a set of Western blot images that illustrate example relative occurrence of proteins in T24 human bladder carcinoma cells transfected with control (column C, 100 nM control siRNA) or NQO1-specific siRNA (columns 50 and 100 nM NQO1 siRNA) for 24 h and then incubated for 6 h with vehicle (signified by -) or proteasome inhibitor MG-132 (signified by +) before lysis and separation via SDS-PAGE. The samples were probed with the antibodies indicated: for NQO1 in blot image 621; for CREB in blot image 623; for AMPK in blot image 625; for PGC1α in blot image 627; and, for control GAPDH in blot image 629. FIG. 6D and FIG. 6E are sets of Western blot images that illustrate example relative occurrence of proteins in T24 cells that were incubated for 16 h with B[α]P at concentrations of 0, 10 and 100 nanoMoles (nM, 1 nM=10^−9 Moles) and then immunoprecipitated with antibodies against CREB (in FIG. 6D) and AMPK (in FIG. 6E) overnight. IgG was used as immunoprecipitation control.” for “619.”

[3] = test system: wild-type and NQO1−/− bladder cells; assay: Ex vivo bladder cell culture, B[α]P-induced ROS (DCF fluorescence); format: cell-based, mouse
Protocol: Ex-vivo cell culture and chemical treatment. Whole bladders from age-matched female wild-type and NQO1−/− 24 weeks-old mice were excised from euthanized mice and minced in a 10 cm dish with a razorblade. Pieces were suspended in microfuge tubes containing 500 microliters of 1% […] reconstituted in PBS and incubated at 37 degrees with 700 rpm shaking for 45 minutes to dissociate cells from tissue. Tubes were centrifuged at 500 g for 3 minutes to pellet cells, and resuspended in full cell culture media. Cells were plated in 8-well tissue culture chamber slides (e.g., from LAB-TEK™) with cells from one bladder equally divided into one 8-well slide, into 1 mL media total volume. After 2-4 days of growth with daily media changes, cells were treated with various concentrations of benzopyrene dissolved in acetone, or acetone control in fresh media for 18 h, followed by removal and addition of DCF (SIGMA ALDRICH™) at 5 micromolar for 1 h. DCF was then removed and full media added for 1 h, followed by immediate mounting of cover slips in VectaShield (VECTOR LABS™ of Burlingame, Calif.) and viewing under FITC-viewing filter to determine fluorescence of ROS-modified DCF within cells. […]

## CC(C)C[C@@H](C=O)NC(=O)[C@H](CC(C)C)NC(=O)[C@H](CC(C)C)NC(=O)OCc1ccccc1 [MG-132] (Cbz-Leu-Leu-Leu-aldehyde)
[1]
  rescue of AMPK protein from down regulation: rescued from down regulation
  rescue of CREB protein from down regulation: rescued from down regulation
  rescue of PGC1α protein from down regulation: not PGC1α proteins were rescued from down regulation

## benzo[α]pyrene [B[α]P]
[2]; FIG. 6D
  20S proteasome interaction with CREB: more or less did not change
  NQO1 interaction with CREB: appears to be increased during stress conditions
[2]; FIG. 6E
  20S proteasome interaction with AMPK: more or less did not change
  NQO1 interaction with AMPK: appears to be increased during stress conditions
[3]; 100 μM B[α]P, 18 h, cells from 24 week-old female mice, NQO1−/− vs wild-type, P<0.05, FIG. 3C
  stress signaling (count of ROS-positive, DCF-positive cells normalized to wild-type): significantly stronger stress than does wild-type
[3]; NQO1−/− bladder cells relative to wild-type bladder cells, ex vivo
  susceptibility to B[α]P-induced generation of reactive oxygen species (ROS): markedly increased susceptibility
